US20240246946A1, “MODULATORS OF TREX1” (Constellation Pharmaceuticals, Inc., priority 2021, published 2024)

Assays:
full length mouse TREX1 = molecular target: T1, full length mouse TREX1 (Mus musculus, UniProt Q91XB0); assay: mTREX1 Biochemical Assay (fluorescence, dsDNA substrate degradation); details: biochemical, read-out: mTREX1 IC50
T1 construct: N-terminally His-Tev tagged full length mouse TREX1; made in house; host or cells: E. coli
T1 sequence (Q91XB0 1-314): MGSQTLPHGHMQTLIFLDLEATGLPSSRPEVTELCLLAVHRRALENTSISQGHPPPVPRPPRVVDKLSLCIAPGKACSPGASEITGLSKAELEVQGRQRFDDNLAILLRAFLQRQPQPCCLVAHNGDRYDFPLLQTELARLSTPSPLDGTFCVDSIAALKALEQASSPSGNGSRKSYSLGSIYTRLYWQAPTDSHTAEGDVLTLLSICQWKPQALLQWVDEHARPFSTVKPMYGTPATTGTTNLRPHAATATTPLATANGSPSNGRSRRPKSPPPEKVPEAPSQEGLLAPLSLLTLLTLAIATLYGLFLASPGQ
Procedure, shortened: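 Reaction run 18 h at 25° C. with 60 nM TEX615/quencher-labelled dsDNA and 6 pM mouse TREX1 in Tris buffer (pH 7.4, 5 mM MgCl2, 1.0% DMSO), enzyme having sat 4 h with compound across 10 concentrations. EDTA quench; substrate degradation measured as fluorescence increase.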

[1] = molecular target: T2, human TREX2 (residues M44-A279) (Homo sapiens, UniProt Q9BQ50); assay: hTREX2 Biochemical Assay (fluorescence, dsDNA substrate degradation); details: biochemical selectivity for hTREX1 vs hTREX2
T2 construct: human TREX2 (residues M44-A279, expressed in E. coli); made in house; host or cells: E. coli
T2 sequence (Q9BQ50 44-279 isoform Q9BQ50-1): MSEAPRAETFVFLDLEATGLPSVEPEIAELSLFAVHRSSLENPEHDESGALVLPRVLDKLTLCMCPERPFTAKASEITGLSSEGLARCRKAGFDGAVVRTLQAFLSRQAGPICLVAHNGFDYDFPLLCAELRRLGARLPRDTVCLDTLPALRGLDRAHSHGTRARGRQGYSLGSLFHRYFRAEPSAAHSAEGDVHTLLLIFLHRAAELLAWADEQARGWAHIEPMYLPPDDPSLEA
Procedure, shortened: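 N-His-Tev E. coli enzyme (50 pM) pre-incubated with compound 4 h at 25 °C, then 60 nM TEX615/quencher dsDNA added; 18 h at 25 °C, pH 7.4 Tris buffer with 5 mM MgCl2, 1.0% DMSO. EDTA-quenched; fluorescence 570 ex/615 em from liberated fluorophore, 10-point dose-response.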

full length human TREX1 = molecular target: T3, full length human TREX1 (Homo sapiens, UniProt Q9NSU2); assay: hTREX1 Biochemical Assay (fluorescence, dsDNA substrate degradation); details: biochemical, read-out: hTREX1 IC50
T3 construct: N-terminally His-Tev tagged full length human TREX1; made in house; host or cells: E. coli
T3 sequence (Q9NSU2 1-314): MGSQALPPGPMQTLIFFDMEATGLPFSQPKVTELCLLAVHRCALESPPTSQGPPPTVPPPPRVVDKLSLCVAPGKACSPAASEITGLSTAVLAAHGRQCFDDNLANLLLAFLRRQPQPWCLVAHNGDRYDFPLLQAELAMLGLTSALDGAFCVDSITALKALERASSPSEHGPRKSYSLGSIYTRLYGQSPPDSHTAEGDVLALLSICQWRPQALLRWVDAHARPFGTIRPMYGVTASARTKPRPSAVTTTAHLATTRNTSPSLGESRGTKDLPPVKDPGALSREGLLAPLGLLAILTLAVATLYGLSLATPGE
Procedure, shortened: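 Cleavage of 60 nM TEX615/quencher-labelled dsDNA in pH 7.4 Tris buffer with 5 mM MgCl2, 1.0% DMSO, run 18 hours at 25° C, EDTA-quenched; fluorescence read-out.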

hTREX1 = molecular target: T4, hTREX1 (Homo sapiens, UniProt Q9NSU2); assay: hTREX1 HCT116 Cell Assay (HCT116 dual cells, Lucia luciferase reporter of Type I interferon induction); assay type: cell-based; details: TREX1i 4 h before pBR322/BstNI transfection, read after 48 h
T4 construct: host or cells: HCT116 dual cells
T4 sequence (Q9NSU2 1-314): T3 sequence (Q9NSU2 1-314)
From the text: HCT116 dual cells (Invivogen, San Diego, CA, USA) are derived from the human HCT116 colorectal carcinoma cell line. Cells have been selected for the stable integration of SEAP and Luciferase reporter genes, which expression is under the control of 5 tandem response elements for NF-KB/AP1 and STAT1/STAT2, respectively. The cell line was used to monitor Type I interferon induction and subsequent signaling by measuring the activity of the Lucia luciferase secreted in the culture medium.
HCT116 cells were plated in 96-well plate(s) at 40,000 cells/well in 100 uL DMEM supplemented with 10% FBS and 25 mM Hepes (pH 7.2-7.5). After overnight settling, cells were treated with TREX1i for 4 h (maximum DMSO fraction was 0.1%) before 1 ug/mL pBR322/BstNI restriction digest (New England Biolabs, Ipswich, MA, USA) was transfected with Lipofectamine LTX (ThermoFisher, Grand Island, NY, USA), according to product manual recommendations. Briefly, Lipofectamine LTX (0.35 uL/well) was diluted in OptiMEM (5 uL/well). pBR322/BstNI (100 ng/well) was diluted in OptiMEM (5 uL/well) before Plus reagent (0.1 uL/100 ng DNA) was added. After 5 min incubation at room temperature, the DNA mixture was mixed dropwise with the diluted Lipofectamine LTX. After an additional 10 min incubation, the transfection mix (10 uL/well) was added to the cells. Cells were maintained at 37 C for 48 h before monitoring the Lucia Luciferase activity from the cell culture medium.

## Cc1cnc(C(c2ccccc2Cl)C(C)c2nc(C(=O)Nc3cnoc3)c(O)c(=O)n2C)cn1 (single isomer, unassigned) [Example 116 D1E2]
Full length mouse TREX1
  IC50: 1 to 10 nM
[1]
  hTREX1 vs hTREX2 selectivity: B (B = 25 to 50-fold selective for hTREX1)
Full length human TREX1
  IC50: < 1 nM
hTREX1
  IC50: 10 to 100 nM

## Cc1cnc(C)c(C(c2cc(F)ccc2Cl)C(C)c2nc(C(=O)Nc3cnoc3)c(O)c(=O)n2C)n1 (single isomer, unassigned) [Example 121 D1E1]
Full length mouse TREX1
  IC50: 1 to 10 nM
[1]
  hTREX1 vs hTREX2 selectivity: C (C = >50 fold selective for hTREX1)
Full length human TREX1
  IC50: < 1 nM
hTREX1
  IC50: < 10 nM

## CC(c1nc(C(=O)Nc2cnoc2)c(O)c(=O)n1C)C(c1ccccc1Cl)n1cc2ccccc2n1 (single isomer, unassigned) [Example 141 D1E1]
Full length mouse TREX1
  IC50: 1 to 10 nM
[1]
  hTREX1 vs hTREX2 selectivity: A (A = <25 fold selective for hTREX1)
Full length human TREX1
  IC50: 1 to 10 nM
hTREX1
  IC50: > 100 nM

## COCCn1cc(C(c2cc(F)ccc2C#N)C(C)c2nc(C(=O)Nc3cnoc3)c(O)c(=O)n2C)c(C)n1 (single isomer, unassigned) [Example 103 D2E1]
Full length mouse TREX1
  IC50: > 10 nM
[1]
  hTREX1 vs hTREX2 selectivity: A (A = <25 fold selective for hTREX1)
Full length human TREX1
  IC50: 1 to 10 nM
hTREX1
  IC50: > 100 nM

## Cc1cnc(C(c2ccccc2Cl)C(C)c2nc(C(=O)Nc3cnoc3)c(O)c(=O)n2C)cn1 (single isomer, unassigned) [Example 116 D2E1]
Full length mouse TREX1
  IC50: > 10 nM
[1]
  hTREX1 vs hTREX2 selectivity: A (A = <25 fold selective for hTREX1)
Full length human TREX1
  IC50: 1 to 10 nM
hTREX1
  IC50: > 100 nM

## Cc1cnc(C(c2cc(F)ccc2C#N)C(C)c2nc(C(=O)Nc3cnoc3)c(O)c(=O)n2C)cn1 (single isomer, unassigned) [Example 115 D2E2]
Full length mouse TREX1
  IC50: > 10 nM
[1]
  hTREX1 vs hTREX2 selectivity: C (C = >50 fold selective for hTREX1)
Full length human TREX1
  IC50: 1 to 10 nM
hTREX1
  IC50: > 100 nM

## Cc1nccc(C(c2ccccc2C#N)C(C)c2nc(C(=O)Nc3cnoc3)c(O)c(=O)n2C)n1 (single isomer, unassigned) [Example 83 D2E1]
Full length mouse TREX1
  IC50: > 10 nM
[1]
  hTREX1 vs hTREX2 selectivity: B (B = 25 to 50-fold selective for hTREX1)
Full length human TREX1
  IC50: 1 to 10 nM
hTREX1
  IC50: > 100 nM

## COCCn1nc(C)c(C(c2cc(F)ccc2C#N)C(C)c2nc(C(=O)Nc3cnoc3)c(O)c(=O)n2C)c1C (single isomer, unassigned) [Example 110 D1E1]
Full length mouse TREX1
  IC50: 1 to 10 nM
[1]
  hTREX1 vs hTREX2 selectivity: C (C = >50 fold selective for hTREX1)
Full length human TREX1
  IC50: < 1 nM
hTREX1
  IC50: > 100 nM

## Cc1cc(C(c2cc(F)ccc2C#N)C(C)c2nc(C(=O)Nc3cnoc3)c(O)c(=O)n2C)n(C)n1 (single isomer, unassigned) [Example 111 D2E1]
Full length mouse TREX1
  IC50: > 10 nM
[1]
  hTREX1 vs hTREX2 selectivity: C (C = >50 fold selective for hTREX1)
Full length human TREX1
  IC50: < 1 nM
hTREX1
  IC50: > 100 nM

## COCCn1ncc(C(c2cc(F)ccc2Cl)C(C)c2nc(C(=O)Nc3cnoc3)c(O)c(=O)n2C)c1C (single isomer, unassigned) [Example 108 D2E1]
Full length mouse TREX1
  IC50: > 10 nM
[1]
  hTREX1 vs hTREX2 selectivity: A (A = <25 fold selective for hTREX1)
Full length human TREX1
  IC50: 1 to 10 nM
hTREX1
  IC50: 10 to 100 nM

## Cc1cnc(C)c(C(c2cc(F)ccc2Cl)C(C)c2nc(C(=O)Nc3cnoc3)c(O)c(=O)n2C)n1 (single isomer, unassigned) [Example 121 D2E1]
Full length mouse TREX1
  IC50: > 10 nM
[1]
  hTREX1 vs hTREX2 selectivity: B (B = 25 to 50-fold selective for hTREX1)
Full length human TREX1
  IC50: > 10 nM
hTREX1
  IC50: > 100 nM

## CC(c1nc(C(=O)Nc2cnoc2)c(O)c(=O)n1C)C(c1cnc(C(F)(F)F)cn1)c1ccccc1C#N (single isomer, unassigned) [Example 118 D2E1]
Full length mouse TREX1
  IC50: > 10 nM
[1]
  hTREX1 vs hTREX2 selectivity: B (B = 25 to 50-fold selective for hTREX1)
Full length human TREX1
  IC50: 1 to 10 nM
hTREX1
  IC50: > 100 nM

## CC(c1nc(C(=O)Nc2cnoc2)c(O)c(=O)n1C)C(c1cnn(CC(C)(C)O)c1)c1ccccc1Cl (single isomer, unassigned) [Example 86 D1E1]
Full length mouse TREX1
  IC50: 1 to 10 nM
[1]
  hTREX1 vs hTREX2 selectivity: B (B = 25 to 50-fold selective for hTREX1)
Full length human TREX1
  IC50: < 1 nM
hTREX1
  IC50: > 100 nM

## Cc1nn(C)cc1C(c1ccccc1C#N)C(c1nc(C(=O)Nc2cnoc2)c(O)c(=O)n1C)C(F)(F)F (single isomer, unassigned) [Example 41 D1E2]
Full length mouse TREX1
  IC50: 1 to 10 nM
[1]
  hTREX1 vs hTREX2 selectivity: C (C = >50 fold selective for hTREX1)
Full length human TREX1
  IC50: < 1 nM
hTREX1
  IC50: < 10 nM

## CC(c1nc(C(=O)Nc2cnoc2)c(O)c(=O)n1C)C(c1ccccc1Cl)n1nccc1C(N)=O (single isomer, unassigned) [Example 147 D1E1]
Full length mouse TREX1
  IC50: > 10 nM
[1]
  hTREX1 vs hTREX2 selectivity: C (C = >50 fold selective for hTREX1)
Full length human TREX1
  IC50: < 1 nM
hTREX1
  IC50: 10 to 100 nM

## Cn1cc(C(c2ccccc2C#N)C(c2nc(C(=O)Nc3cnoc3)c(O)c(=O)n2C)C(F)(F)F)cn1 (single isomer, unassigned) [Example 40 D1E2]
Full length mouse TREX1
  IC50: 1 to 10 nM
[1]
  hTREX1 vs hTREX2 selectivity: B (B = 25 to 50-fold selective for hTREX1)
Full length human TREX1
  IC50: < 1 nM
hTREX1
  IC50: > 100 nM

## CC(c1nc(C(=O)Nc2cnoc2)c(O)c(=O)n1C)C(c1ccccc1C#N)c1ccnn1C (single isomer, unassigned) [Example 1 D1E1]
Full length mouse TREX1
  IC50: 1 to 10 nM
[1]
  hTREX1 vs hTREX2 selectivity: A (A = <25 fold selective for hTREX1)
Full length human TREX1
  IC50: 1 to 10 nM
hTREX1
  IC50: 10 to 100 nM

## Cc1cnc(C)c(C(c2cc(F)ccc2C#N)C(C)c2nc(C(=O)Nc3cnoc3)c(O)c(=O)n2C)n1 (single isomer, unassigned) [Example 119 D1E2]
Full length mouse TREX1
  IC50: > 10 nM
[1]
  hTREX1 vs hTREX2 selectivity: B (B = 25 to 50-fold selective for hTREX1)
Full length human TREX1
  IC50: > 10 nM
hTREX1
  IC50: > 100 nM

## CC(c1nc(C(=O)Nc2cnoc2)c(O)c(=O)n1C)C(c1ccccc1Cl)n1cccn1 (single isomer, unassigned) [Example 45 D1E1]
Full length mouse TREX1
  IC50: > 10 nM
[1]
  hTREX1 vs hTREX2 selectivity: B (B = 25 to 50-fold selective for hTREX1)
Full length human TREX1
  IC50: 1 to 10 nM
hTREX1
  IC50: > 100 nM

## Cc1ccn(C(c2cc(F)ccc2Cl)C(C)c2nc(C(=O)Nc3cnoc3)c(O)c(=O)n2C)n1 (single isomer, unassigned) [Example 146 D1E1]
Full length mouse TREX1
  IC50: > 10 nM
[1]
  hTREX1 vs hTREX2 selectivity: C (C = >50 fold selective for hTREX1)
Full length human TREX1
  IC50: 1 to 10 nM
hTREX1
  IC50: > 100 nM

## Cc1cnc(C)c(C(c2ccccc2Cl)C(C)c2nc(C(=O)Nc3cnoc3)c(O)c(=O)n2C)n1 (single isomer, unassigned) [Example 120 D1E1]
Full length mouse TREX1
  IC50: 1 to 10 nM
[1]
  hTREX1 vs hTREX2 selectivity: C (C = >50 fold selective for hTREX1)
Full length human TREX1
  IC50: < 1 nM
hTREX1
  IC50: < 10 nM
